# Measured values as given in patent US12527779B2, “Prostaglandin E2 (PGE2) EP4 receptor antagonists” (Domain Therapeutics, priority 2019, dated 2026).
# Test system: Pan02 tumor cells
# Test: In vivo anti-tumoral activity of Example 166 in a Pan02 tumor model
# Design: species or system C57BL/6 mice
# Description: Pan02 tumor cells were maintained in vitro as a monolayer culture in RPM11640 medium supplemented with 10% fetal bovine serum at 37° C. in an atmosphere of 5% CO2 in air. The cells were routinely subcultured twice weekly by trypsin-EDTA treatment. The cells in an exponential growth phase were harvested and counted for tumor inoculation. Female C57BL/6 mice were inoculated subcutaneously in the right rear flank region with Pan02 tumor cells (3×10^6) in 0.1 ml of PBS for tumor development on day 0. Tumor volumes were measured thrice per week in two dimensions using a caliper, and the volume was expressed in mm^3 using the formula: “V=(L×W×W)/2”, where V is tumor volume, L is tumor length (the longest tumor dimension) and W is tumor width (the longest tumor dimension perpendicular to L). When the mean tumor size reached approximately 100 mm^3, mice were randomly allocated into groups (10 mice per group) and treated with or without the compound of Example 166 (3, 10, 30, 100 or 300 mg/kg, po, QD, 5% DMSO/95% (10% w/v solution of HP-β-CD in water) v/v) for at least 3 weeks). Animals were checked daily for morbidity and mortality. During routine monitoring, the animals were checked for any effects on tumor growth and treatments on behavior such as mobility, food and water consumption, body weight gain/loss (body weights were measured thrice per week), eye/hair matting and any other abnormalities. Dosing as well as tumor and body weight measurements were conducted in a Laminar Flow Cabinet. The body weights and tumor volumes were monitored by using StudyDirector™ software (version 3.1.399.19).
structure (smiles),measurement,setting,value
"C[C@H](NC(=O)C1(N2CC[C@@H](Oc3cccc(C(F)(F)F)c3)C2)CC1)c1ccc(C(=O)O)cc1.Cl [Example 166, 4-[(1S)-1-[[1-[(3R)-3-[3-(Trifluoromethyl)phenoxy]pyrrolidin-1-yl]cyclopropane-1-carbonyl]amino]ethyl]benzoic acid, hydrochloride]",Tumor Growth Inhibition TGI (%),"3 mg/kg po QD, day 0",0.0%
same,Tumor Growth Inhibition TGI (%),"3 mg/kg po QD, day 4",8.2%
same,Tumor Growth Inhibition TGI (%),"3 mg/kg po QD, day 7",2.9%
same,Tumor Growth Inhibition TGI (%),"3 mg/kg po QD, day 9",2.3%
same,Tumor Growth Inhibition TGI (%),"3 mg/kg po QD, day 11",−8.0%
same,Tumor Growth Inhibition TGI (%),"3 mg/kg po QD, day 14",−5.6%
same,Tumor Growth Inhibition TGI (%),"3 mg/kg po QD, day 16",10.7%
same,Tumor Growth Inhibition TGI (%),"3 mg/kg po QD, day 18",9.1%
same,Tumor Growth Inhibition TGI (%),"3 mg/kg po QD, day 21",−1.4%
same,Tumor Growth Inhibition TGI (%),"10 mg/kg po QD, day 0",0.0%
same,Tumor Growth Inhibition TGI (%),"10 mg/kg po QD, day 4",14.3%
same,Tumor Growth Inhibition TGI (%),"10 mg/kg po QD, day 7",−2.3%
same,Tumor Growth Inhibition TGI (%),"10 mg/kg po QD, day 9",0.8%
same,Tumor Growth Inhibition TGI (%),"10 mg/kg po QD, day 11",2.4%
same,Tumor Growth Inhibition TGI (%),"10 mg/kg po QD, day 14",11.1%
same,Tumor Growth Inhibition TGI (%),"10 mg/kg po QD, day 16",21.1%
same,Tumor Growth Inhibition TGI (%),"10 mg/kg po QD, day 18",22.4%
same,Tumor Growth Inhibition TGI (%),"10 mg/kg po QD, day 21",16.2%
same,Tumor Growth Inhibition TGI (%),"30 mg/kg po QD, day 0",0.0%
same,Tumor Growth Inhibition TGI (%),"30 mg/kg po QD, day 4",17.5%
same,Tumor Growth Inhibition TGI (%),"30 mg/kg po QD, day 7",19.0%
same,Tumor Growth Inhibition TGI (%),"30 mg/kg po QD, day 9",16.3%
same,Tumor Growth Inhibition TGI (%),"30 mg/kg po QD, day 11",−8.2%
same,Tumor Growth Inhibition TGI (%),"30 mg/kg po QD, day 14",5.7%
same,Tumor Growth Inhibition TGI (%),"30 mg/kg po QD, day 16",9.7%
same,Tumor Growth Inhibition TGI (%),"30 mg/kg po QD, day 18",13.9%
same,Tumor Growth Inhibition TGI (%),"30 mg/kg po QD, day 21",7.4%
same,Tumor Growth Inhibition TGI (%),"100 mg/kg po QD, day 0",0.0%
same,Tumor Growth Inhibition TGI (%),"100 mg/kg po QD, day 4",17.1%
same,Tumor Growth Inhibition TGI (%),"100 mg/kg po QD, day 7",21.4%
same,Tumor Growth Inhibition TGI (%),"100 mg/kg po QD, day 9",20.8%
same,Tumor Growth Inhibition TGI (%),"100 mg/kg po QD, day 11",23.7%
same,Tumor Growth Inhibition TGI (%),"100 mg/kg po QD, day 14",44.3%
same,Tumor Growth Inhibition TGI (%),"100 mg/kg po QD, day 16",42.2%
same,Tumor Growth Inhibition TGI (%),"100 mg/kg po QD, day 18, hydrochloride",48.2%
same,Tumor Growth Inhibition TGI (%),"100 mg/kg po QD, day 21",42.6%
same,Tumor Growth Inhibition TGI (%),"300 mg/kg po QD, day 0",0.0%
same,Tumor Growth Inhibition TGI (%),"300 mg/kg po QD, day 4",14.3%
same,Tumor Growth Inhibition TGI (%),"300 mg/kg po QD, day 7",−2.5%
same,Tumor Growth Inhibition TGI (%),"300 mg/kg po QD, day 9",−0.7%
same,Tumor Growth Inhibition TGI (%),"300 mg/kg po QD, day 11",−5.6%
same,Tumor Growth Inhibition TGI (%),"300 mg/kg po QD, day 14",11.8%
same,Tumor Growth Inhibition TGI (%),"300 mg/kg po QD, day 16",24.7%
same,Tumor Growth Inhibition TGI (%),"300 mg/kg po QD, day 18, hydrochloride",32.9%
same,Tumor Growth Inhibition TGI (%),"300 mg/kg po QD, day 21",32.8%
